Drawing on PubChem BioAssay AID2693 (Broad Institute, 2010), this text covers MIC for 16 compounds.

≈ marks a conversion by molar mass, not a printed value. Inconclusive results are not listed. Calls of active or inactive are those of the source.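 How the source made its calls: active means a dose response whose lowest growth-blocking dose, signal 3 SD under solvent wells, sits below the top dose; inconclusive means compound fluoresces without dose trend, or replicates split around top dose; inactive means no growth loss up to the top dose.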

For the experiment, the system named is S. cerevisiae SKY197-pL101 growth, alamar blue fluorescence, 9 h. Nature of the experiment: yeast viability loss, SKY197-pL101 strain – Alamar Blue fluorescence, MIC, counter-screen for polyadenylation inhibitor project, dose response (AID 2693). Background: Resazurin is reduced to fluorescent resorufin, in cell work by metabolically active cells.
With `O=C(Oc1c(-c2ccccc2)c(=O)n2c3c(cccc13)CC2)c1cccc([N+](=O)[O-])c1`, the MIC (as a rule, the lowest concentration that inhibits growth of the organism) is > 50 µM (inactive).

Regarding `COc1cc(/C=C2/SC(=S)N(Cc3ccccc3)C2=O)cc(OC)c1O`, the MIC was > 50 µM (inactive).

For `COc1cc(/C=C2\SC(=S)N(NC(=O)c3ccncc3)C2=O)ccc1O`, the MIC was 25 µM (≈ 9.69 µg/mL).

Consider `N#C/C(=C/c1ccc([N+](=O)[O-])o1)c1nc2ccccc2[nH]1`, for which the MIC is 2.3 µM (≈ 0.645 µg/mL).

Regarding `Cc1ccc(C(=O)c2no[n+]([O-])c2C(=O)c2ccc(C)cc2)cc1`, the minimum inhibitory concentration (MIC) was 3.1 µM (≈ 0.999 µg/mL).

For the compound `N#CC1(C#N)C2=C(CCCC2)NC(c2ccccc2)C1(C#N)C#N` (stereo unspecified), the MIC was 50 µM (≈ 15.7 µg/mL).

Take `Cc1ccc(-c2nn3c(C)nnc3s2)cc1NC(=O)CSc1ccc(Cl)cc1`: the MIC is > 50 µM (inactive).

Take `CCOc1cc(/C=C2\N=C(SC(C)C(N)=O)N(c3ccc(OC(F)F)cc3)C2=O)ccc1O` (stereo unspecified): the MIC is > 50 µM (inactive).

As for `O=C(COC(=O)Cc1ccc(S(=O)(=O)N2CCOCC2)s1)NCc1ccc(Cl)cc1`, the MIC was > 50 µM (inactive).

Turning to `O=C(O)CN1C(=O)/C(=C\c2ccc(N3CCCCC3)o2)SC1=S`, the MIC is 37 µM (≈ 13 µg/mL).

On to `Cc1ccc2nc(/C(C#N)=C/c3ccc([N+](=O)[O-])o3)[nH]c2c1`, for which the MIC is 2.3 µM (≈ 0.677 µg/mL).

As for `CC(=O)c1ccc(Sc2ccccc2)c([N+](=O)[O-])c1`, the MIC is > 50 µM (inactive).

Regarding `COc1cc(/C=C2/CC/C(=C/c3ccc(O)c(OC)c3)C2=O)ccc1O`, the MIC is > 50 µM (inactive).

For the compound `CCN1/C(=C\C=C\c2sc3ccccc3[n+]2CC)Sc2ccccc21`, the minimal inhibitory concentration (MIC) is 4.8 µM.

Regarding `Nc1ncnc2c1ncn2C1OC(CO)CC1O` (stereo unspecified), the MIC is > 50 µM (inactive).

For the compound `Cc1ccc(Nc2c(-c3ccc(C)o3)nc3ncccn23)cc1`, the MIC was > 50 µM (inactive).
